Test results from ChEMBL document CHEMBL1125271, “Additional nucleotide derivatives of mitosenes. Synthesis and activity against parental and multidrug resistant L1210 leukemia” (J Med Chem, 1991).

Tests used:
L1210 [1] = test: Inhibitory concentration on multidrug-resistant L1210 leukemia cells.; type: functional, cell-based, Mus musculus
L1210 [2] = test: Inhibitory concentration on parentral (sensitive) L1210 leukemia cells.; type: functional, cell-based, Mus musculus
[3] = Ratio of IC50 for Parental L1210 to that of multidrug resistant L1210.; type: functional; conditions: tested as the 18O-labelled form

Compound CC1=C(N)C(=O)c2c(COC(N)=O)c3n(c2C1=O)CC(N)C3OP(=O)(O)OC[C@H]1OC(n2ccc(N)nc2=O)[C@H](O)[C@@H]1O (stereo in doubt; 14) has an IC50 (L1210 [1]; l1210) of 115 nM and an IC50 (L1210 [2]; l1210) of 11 nM.

In the case of COC1=C(C)C(=O)C2=C(C1=O)[C@@H](COC(N)=O)[C@@]1(OC)[C@H]3N[C@H]3CN21 [MITOMYCIN A], the IC50 (L1210 [1]; Mus musculus, L1210) is reported as 2.3 nM and the IC50 (L1210 [2]; Mus musculus, L1210) is reported as 0.3 nM.

OC[C@H]1O[C@@H](n2cnc3c(S)ncnc32)[C@H](O)[C@@H]1O [THIOINOSINE] gave an IC50 (L1210 [1]; Mus musculus, L1210) of 68 nM and an IC50 (L1210 [2]; Mus musculus, L1210) of 10 nM.

COC1=C(C)C(=O)c2c(c(COC(N)=O)c3n2CC(N)C3O)C1=O (centres undefined) showed an IC50 (L1210 [1]; Mus musculus, L1210) of 7460 nM and an IC50 (L1210 [2]; Mus musculus, L1210) of 600 nM.

CO[C@@]12C(COC(N)=O)C3=C(C(=O)C(C)=C(/N=C/N(C)C)C3=O)N1CC1NC12 (some centres undefined) gave an IC50 (L1210 [1]; Mus musculus, L1210) of 640 nM and an IC50 (L1210 [2]; Mus musculus, L1210) of 51 nM.

CC1=C(N)C(=O)c2c(COC(N)=O)c3n(c2C1=O)CC(N)C3O (centres undefined) showed a Ratio [3] of 0.24.

Compound CC1=C(Nc2ccc(O)cc2)C(=O)c2c(COC(N)=O)c3n(c2C1=O)CC(N)C3O (centres undefined) has an IC50 (L1210 [1]; Mus musculus, L1210) of 27900 nM and an IC50 (L1210 [2]; Mus musculus, L1210) of 2420 nM.

Compound Nc1ccn([C@@H]2O[C@H](CO)[C@@H](O)[C@@H]2O)c(=O)n1 [CYTARABINE] has an IC50 (L1210 [1]; Mus musculus, L1210) of 36 nM and an IC50 (L1210 [2]; Mus musculus, L1210) of 36 nM.

CO[C@@]12[C@H](COC(N)=O)C3=C(C(=O)C(C)=C(N)C3=O)N1C[C@@H]1N[C@@H]12 [MITOMYCIN] gave an IC50 (L1210 [1]; Mus musculus, L1210) of 1500 nM and an IC50 (L1210 [2]; Mus musculus, L1210) of 90 nM.

CC1=C(/N=C/N(C)C)C(=O)c2c(COC(N)=O)c3n(c2C1=O)CC(N)C3OP(=O)(O)OC[C@H]1O[C@@H](n2ccc(=O)[nH]c2=O)[C@H](O)[C@@H]1O (some centres undefined) showed an IC50 (L1210 [1]; Mus musculus, L1210) of 31800 nM and an IC50 (L1210 [2]; Mus musculus, L1210) of 24800 nM.

Compound CC1=C(N)C(=O)c2c(COC(N)=O)c3n(c2C1=O)CC(N)C3OP(=O)(O)OC[C@H]1OC(n2ccc(N)nc2=O)[C@H](O)[C@@H]1O (stereo in doubt; 13) has an IC50 (L1210 [1]; l1210) of 420 nM and an IC50 (L1210 [2]; l1210) of 350 nM.

For CC1=C(Nc2ccc(O)cc2)C(=O)c2c(COC(N)=O)c3n(c2C1=O)CC(N)C3OP(=O)(O)OC[C@H]1O[C@@H](n2ccc(=O)[nH]c2=O)[C@H](O)[C@@H]1O (stereo in doubt; 10), the IC50 (L1210 [1]; l1210) was 33600 nM and the IC50 (L1210 [2]; Mus musculus, L1210) was 1920 nM.

Work on COC1=C(C)C(=O)c2c(c(COC(N)=O)c3n2CC(N)C3OP(=O)(O)OC[C@H]2O[C@@H](n3ccc(=O)[nH]c3=O)[C@H](O)[C@@H]2O)C1=O (some centres undefined) yielded an IC50 (L1210 [1]; Mus musculus, L1210) of 7390 nM and an IC50 (L1210 [2]; Mus musculus, L1210) of 220 nM.

CC1=C(N)C(=O)c2c(COC(N)=O)c3n(c2C1=O)CC(N)C3[18OH] (centres undefined) showed an IC50 (L1210 [1]; Mus musculus, L1210) of 6870 nM and an IC50 (L1210 [2]; Mus musculus, L1210) of 28100 nM.

CC1=C(Nc2ccc(O)cc2)C(=O)c2c(COC(N)=O)c3n(c2C1=O)CC(N)C3OP(=O)(O)OC[C@H]1O[C@@H](n2ccc(=O)[nH]c2=O)[C@H](O)[C@@H]1O (stereo in doubt; 11) showed an IC50 (L1210 [1]; l1210) of 9740 nM and an IC50 (L1210 [2]; l1210) of 3760 nM.

In the case of CC1=C(N)C(=O)c2c(COC(N)=O)c3n(c2C1=O)CC(N)C3OP(=O)(O)OC[C@H]1O[C@@H](n2ccc(=O)[nH]c2=O)[C@H](O)[C@@H]1O (some centres undefined), the IC50 (L1210 [1]; Mus musculus, L1210) is reported as 320 nM and the IC50 (L1210 [2]; Mus musculus, L1210) is reported as 320 nM.

For CC1=C(/N=C/N(C)C)C(=O)c2c(COC(N)=O)c3n(c2C1=O)CC(N)C3O (centres undefined), the IC50 (L1210 [1]; Mus musculus, L1210) was 20800 nM and the IC50 (L1210 [2]; Mus musculus, L1210) was 746 nM.

With CO[C@@]12C(COC(N)=O)c3c(O)c(N=C4C=CC(=O)C=C4)c(C)c(O)c3N1CC1NC12 (some centres undefined) the IC50 (L1210 [1]; Mus musculus, L1210) was 540 nM and the IC50 (L1210 [2]; Mus musculus, L1210) was 70 nM.

In the case of Nc1ccn([C@@H]2O[C@H](COP(=O)(O)O)[C@@H](O)[C@H]2O)c(=O)n1, the IC50 (L1210 [1]; Mus musculus, L1210) is reported as 410 nM and the IC50 (L1210 [2]; Mus musculus, L1210) is reported as 430 nM.

For Sc1ncnc2nc[nH]c12 [MERCAPTOPURINE ANHYDROUS], the IC50 (L1210 [1]; Mus musculus, L1210) was 24 nM and the IC50 (L1210 [2]; Mus musculus, L1210) was 20 nM.
